Laboratory results from the supplement of paper PMC4977894.
Where a name gives a salt, the structure may show the parent alone. ± gives the standard deviation of the averaged measurements.

Assays:
[1] = system: Homo sapiens (human subject panel, olfactory perception); assay: perceived odor familiarity rating (rating 0-100); higher = more familiar
Experimental: (§1)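 Human olfactory psychophysics. 55 healthy subjects (after excluding 6 low performers) sniffed 1 mL of each odorant diluted in paraffin oil (vials, two dilutions per molecule, 20 molecules presented twice). Each subject rated intensity, pleasantness and familiarity on a 0-100 slider, starting at 50 and required to move. Ratings were given only when the subject reported detecting a smell; per-subject ratings are averaged over subjects.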

[2] = system: Homo sapiens (human subject panel, olfactory perception); assay: perceived odor pleasantness rating (rating 0-100); higher = more pleasant
Experimental: as §1

[3] = system: Homo sapiens (human subject panel, olfactory perception); assay: perceived odor intensity rating (rating 0-100); higher = stronger perceived smell
Experimental: as §1

[4] = odor dilution in paraffin oil: 1/10
[5] = odor dilution in paraffin oil: 1/1,000
[6] = odor dilution in paraffin oil: 1/100,000
[7] = odor dilution in paraffin oil: 1/10,000,000

SMILES | perceived odor familiarity rating [1, 4] | perceived odor familiarity rating [1, 5] | perceived odor pleasantness rating [2, 4] | perceived odor pleasantness rating [2, 5] | perceived odor intensity rating [3, 4] | perceived odor intensity rating [3, 5] | perceived odor familiarity rating [1, 6] | perceived odor pleasantness rating [2, 6] | perceived odor intensity rating [3, 6] | perceived odor familiarity rating [1, 7] | perceived odor pleasantness rating [2, 7] | perceived odor intensity rating [3, 7]
Cc1ccc(C(C)C)cc1 [para-cymene] | 54.7 ± 32 | 55.8 ± 32 | 37 ± 28 | 47.4 ± 26 | 83.7 ± 15 | 66.4 ± 28 |  |  |  |  |  | 
CSCCO [2-(Methylthio)ethanol] |  | 53.8 ± 34 |  | 34.1 ± 31 |  | 77.7 ± 23 | 37.4 ± 31 | 40 ± 18 | 32.3 ± 29 |  |  | 
CC/C=C\CCOC(=O)CC [cis-3-Hexenyl propionate] |  | 60.9 ± 30 |  | 64.4 ± 28 |  | 61.7 ± 26 | 30.7 ± 28 | 52 ± 20 | 20.4 ± 23 |  |  | 
CCC(C)CO (stereo not given) [2-Methyl-1-butanol (replicate)] |  | 47.1 ± 32 |  | 28 ± 26 |  | 78.8 ± 18 | 37.1 ± 31 | 44.4 ± 23 | 36.4 ± 31 |  |  | 
CCCCCCOC(C)=O [hexyl acetate] |  | 58.2 ± 30 |  | 63.1 ± 24 |  | 58 ± 30 | 29.9 ± 26 | 53.7 ± 23 | 12.7 ± 17 |  |  | 
CCCCCC=O [Hexanal] |  |  |  |  |  |  | 41.5 ± 33 | 20.4 ± 20 | 78.2 ± 21 | 29 ± 26 | 47.2 ± 18 | 15 ± 16
NCCC(=O)O [beta-Alanine] | 35.9 ± 30 | 40.9 ± 30 | 50.1 ± 22 | 50.2 ± 26 | 38.4 ± 28 | 33.9 ± 25 |  |  |  |  |  | 
C/C=C/C=C/C(=O)OCC [Ethyl sorbate] |  | 53.1 ± 29 |  | 35.3 ± 26 |  | 75.4 ± 17 | 41.5 ± 30 | 54.8 ± 20 | 26.1 ± 27 |  |  | 
CCc1ccccc1 [ethylbenzene] |  | 51.4 ± 30 |  | 35.2 ± 25 |  | 75.5 ± 22 | 37 ± 33 | 50.4 ± 19 | 23 ± 24 |  |  | 
CCCCCCO [hexanol] |  | 58.7 ± 28 |  | 58.2 ± 27 |  | 61.5 ± 29 | 42.7 ± 27 | 49.4 ± 26 | 26 ± 27 |  |  | 
CC(=O)c1ccccc1 [acetophenone] |  | 61.3 ± 31 |  | 52.8 ± 30 |  | 81.5 ± 17 | 42.6 ± 30 | 52.7 ± 26 | 45.1 ± 29 |  |  | 
SC1CCCC1 [Cyclopentanethiol] |  |  |  |  |  |  | 55.4 ± 34 | 16.5 ± 22 | 92.4 ± 10 | 57.8 ± 33 | 24 ± 23 | 78.1 ± 21
OCC1CCCO1 (stereo not given) [Tetrahydrofurfuryl alcohol] |  | 30.3 ± 29 |  | 42.7 ± 25 |  | 29.6 ± 27 | 40.3 ± 28 | 45.1 ± 22 | 18.4 ± 23 |  |  | 
CCCCC(C)O (stereo not given) [2-hexanol] |  | 58.2 ± 28 |  | 42.3 ± 24 |  | 71.9 ± 24 | 38.1 ± 29 | 42.1 ± 25 | 47.8 ± 32 |  |  | 
CCOC(=O)CC(O)(CC(=O)OCC)C(=O)OCC [Triethyl citrate] | 41.4 ± 29 | 26.4 ± 22 | 41.1 ± 19 | 46.2 ± 24 | 31.3 ± 30 | 20.4 ± 24 |  |  |  |  |  | 
CC(C)=CCC/C(C)=C/CO [geraniol] |  | 51.8 ± 31 |  | 59.2 ± 25 |  | 71.8 ± 24 | 57 ± 30 | 62.1 ± 27 | 42.3 ± 30 |  |  | 
COC(=O)CSC [Methyl (methylthio)acetate] |  | 45.8 ± 30 |  | 17.9 ± 24 |  | 81.7 ± 16 | 38.9 ± 32 | 37.7 ± 27 | 37.8 ± 31 |  |  | 
OC1CCC2CCCCC2C1 (stereo not given) [Decahydro-2-naphthol] |  | 48.7 ± 29 |  | 49.9 ± 26 |  | 54.8 ± 29 | 36.3 ± 32 | 50.6 ± 24 | 23.1 ± 27 |  |  | 

SMILES | perceived odor familiarity rating [1, 4] | perceived odor familiarity rating [1, 5] | perceived odor pleasantness rating [2, 4] | perceived odor pleasantness rating [2, 5] | perceived odor intensity rating [3, 4] | perceived odor intensity rating [3, 5] | perceived odor familiarity rating [1, 6] | perceived odor pleasantness rating [2, 6] | perceived odor intensity rating [3, 6] | perceived odor familiarity rating [1, 7] | perceived odor pleasantness rating [2, 7] | perceived odor intensity rating [3, 7]
CCCCOC(=O)CCC [butyl butyrate] |  | 49.7 ± 28 |  | 38.1 ± 26 |  | 57.9 ± 27 | 41.3 ± 30 | 48 ± 24 | 25.5 ± 29 |  |  | 
CC(C)COC(=O)Cc1ccccc1 [Isobutyl phenylacetate] |  | 49 ± 31 |  | 45.5 ± 30 |  | 52 ± 29 | 33.7 ± 29 | 54.3 ± 24 | 15.7 ± 21 |  |  | 
N[C@@H](CS)C(=O)O [L-Cysteine] | 46.2 ± 36 | 33.8 ± 28 | 12.8 ± 20 | 39 ± 23 | 71.7 ± 30 | 33.4 ± 30 |  |  |  |  |  | 
CCCCCC(=O)O [caproic acid] |  | 46.7 ± 33 |  | 14.3 ± 19 |  | 84.3 ± 15 | 45.1 ± 29 | 19.4 ± 19 | 66.5 ± 28 |  |  | 
CSCCC=O [3-(Methylthio)propionaldehyde] |  |  |  |  |  |  | 53.5 ± 33 | 23.9 ± 28 | 79.6 ± 23 | 49.9 ± 33 | 30.7 ± 26 | 70.3 ± 25
CC(C)Cc1nccs1 [2-Isobutylthiazole] |  |  |  |  |  |  | 46.3 ± 29 | 41.4 ± 26 | 61.3 ± 26 | 32.4 ± 31 | 46.4 ± 23 | 31.2 ± 31
CCCCCC1CCCC(=O)O1 (stereo not given) [delta-Decalactone] |  | 62.5 ± 28 |  | 69.3 ± 22 |  | 65.7 ± 28 | 60.8 ± 29 | 72.4 ± 20 | 52 ± 28 |  |  | 
CC(=O)OC1CC(C)CCC1C(C)C [L-Menthyl acetate] | 57.8 ± 31 | 45.6 ± 25 | 61.5 ± 25 | 53.4 ± 23 | 63.7 ± 26 | 15.4 ± 24 |  |  |  |  |  | 
C=CC(C)(CCC=C(C)C)OC(C)=O (stereo not given) [Linalyl acetate] |  | 39.3 ± 31 |  | 56.9 ± 24 |  | 29.8 ± 30 | 38.1 ± 31 | 44.5 ± 21 | 31.5 ± 30 |  |  | 
O=C(OCCc1ccccc1)c1ccccc1 [Phenethyl benzoate] | 47.1 ± 31 | 24.1 ± 21 | 53.6 ± 24 | 49.4 ± 17 | 38 ± 27 | 19.6 ± 22 |  |  |  |  |  | 
O=C1CCCC1 [Cyclopentanone] | 48.9 ± 34 | 33.1 ± 30 | 29.6 ± 25 | 36 ± 25 | 81.4 ± 23 | 52.3 ± 33 |  |  |  |  |  | 
COc1cc(C)ccc1O [2-Methoxy-4-methylphenol (replicate)] |  |  |  |  |  |  | 51.8 ± 31 | 39.5 ± 24 | 63 ± 28 | 38.9 ± 26 | 45.5 ± 20 | 33 ± 31
OCc1ccco1 [Furfuryl alcohol] |  | 50.3 ± 27 |  | 39.6 ± 23 |  | 56.7 ± 29 | 33.6 ± 28 | 44.6 ± 24 | 22.8 ± 22 |  |  | 
CC(=O)OCC1CCCO1 (stereo not given) [Tetrahydrofurfuryl acetate] |  | 42.4 ± 28 |  | 40.6 ± 26 |  | 55.6 ± 24 | 27.8 ± 24 | 49.1 ± 26 | 17 ± 24 |  |  | 
CCCCCCCC(=O)O [Octanoic acid] |  | 52.1 ± 33 |  | 26.6 ± 19 |  | 68.6 ± 26 | 45.3 ± 32 | 35.2 ± 20 | 49.5 ± 33 |  |  | 
C=CCSCC=C [Allyl Sulfide] |  |  |  |  |  |  | 40.8 ± 30 | 37.2 ± 25 | 43.2 ± 35 | 35.4 ± 25 | 42.7 ± 23 | 27.3 ± 24
COC(=O)Cc1ccccc1 [Methyl phenylacetate] |  | 54 ± 30 |  | 42.9 ± 30 |  | 69.1 ± 25 | 49.6 ± 30 | 42.3 ± 28 | 58.1 ± 30 |  |  | 
